Series [1] can be described thus: n-octanol/water partition coefficient, shake-flask method. The series is classed as physicochemical. The following applies: n-octanol / buffered saline pH 7.4, shake-flask. The procedure:
The n-octanol/water coefficient of the complexes was determined using the shake-flask method previously described. Buffered-saline distilled water (100 mL, phosphate buffer PO4^3− = 10 mM, (NaCl = 0.15 M, pH 7.4) and n-octanol (100 mL) were shaken together for 72 h to allow the saturation of both phases. Approximately 1 mg of the complexes was dissolved in 5 mL of the aqueous phase, and 5 mL of the organic phase was added, mixing for 10 min. The resulting emulsion was centrifuged to separate the phases. The concentration of the compounds in each phase was determined using UV−Vis absorbance spectroscopy. Log P7.4 was calculated as log (Absorganic/Absaqueous).
Biodistribution studies should be conducted to evaluate whether our complexes could reach their pharmacological target. The potential biodistribution of our complexes was evaluated by the measure of the partition coefficient. This parameter indicates how balanced the lipo- and hydrophilicity of the compounds are. Good equilibrium between these two properties is crucial for proper distribution inside the organism. The bloodstream is aqueous in nature, so hydrophilicity is needed for drug delivery, but too-high hydrophilicity can hinder the penetration of biological membranes. Of course, high lipophilicity behavior can hinder biomedical applications related to a good distribution profile. The chosen method to measure the partition coefficient (Log Pow) was the shake-flask technique, with ideal values in the range of −1 ≤ Log P ow ≤ 3. However, for a greater oral and intestinal absorption, a more restricted range has values around 1.35–1.80 [57]. Table 2 collects all of the obtained Log Pow values, and it can be seen that, although only complex [Au(ppy)(dedtc)]PF6 (C4) satisfied this restricted range, all of them presented acceptable values of Log Pow.

For a further series, the system named is Caco-2/TC7 tumor cells. Kind of series: MTT cell viability, tumor Caco-2/TC7 cells (5 days after seeding). Format: cell-based, human. The following applies: for IC50: Caco-2/TC7, 5 days after seeding, 72 h incubation, MTT; for Tumor Cells Selectivity over Normal Cells: ratio of IC50 normal / tumor Caco-2/TC7 cells. The procedure: This study was conducted in the human enterocyte-like cell line Caco-2/TC7 [44]. This cell line undergoes a process of spontaneous differentiation in culture that leads to the formation of a monolayer of cells, expressing the morphological and functional characteristics of the mature enterocytes. This differentiation process is growth-dependent, where the cells undergo differentiation from “undifferentiated proliferative crypt-type cells” in the exponential phase of growth, to “differentiated enterocyte-type cells” in the stationary phase. The cell culture of Caco-2/TC7 cells (passages 30–50) was performed according to a previously reported method.
Cell survival was measured using the MTT test. The assay depends on the cellular reduction of 3-(4,5-dimethylthiazol-2-yl)-2,5-diphenyltetrazolium bromide (MTT, Sigma-Aldrich, Madrid, Spain) by the mitochondrial dehydrogenase of viable cells to a blue formazan product that can be measured spectrophotometrically, as previously described.
The in vitro cytotoxic effect was evaluated on human colon cancer cell line Caco-2/TC7. This particular cell line presents a huge advantage for toxicity studies because of its spontaneous enterocytic-like differentiation when confluence is reached. Therefore, Caco-2 cells become polarized cells expressing apical and basolateral surfaces with well-established tight junctions. Thus, cells present noncarcinogenic behavior in the confluence and the cytotoxic effect of our complexes can be performed on differentiated cells to evaluate the selectivity toward tumor cells. For the antiproliferative studies, MTT assay was performed after 72 h of exposure to different concentrations of the complexes at two different stages of confluence, five days to evaluate the effect on tumor cells (Figure S7) and 15 days for normal cells (Figure S8).

Series [2] has as its system methicillin-resistant Staphylococcus aureus (Sa). Format: cell-based. As to conditions: 18 h, 37 °C, inhibition ≥ 80%. Here is the method: The antimicrobial assays were performed according to the protocols of the Community for Open Antimicrobial Drug Discovery (CO-ADD). C1–6 were prepared in DMSO and water to a final testing concentration of 32 μg/mL and serially diluted 1:2-fold 8 times. Each sample concentration was prepared in 384-well plates, non-binding surface plate (NBS; Corning 3640) for each bacterial/fungal strain, all in duplicate (n = 2), and keeping the final DMSO concentration to a maximum of 0.5%. All the sample preparation was done using liquid-handling robots.
(§1) The antibacterial activity of all synthesized complexes was evaluated in five different pathogenic bacteria, including methicillin-resistant Staphylococcus aureus (Sa), Escherichia coli (Ec), Klebsiella pneumonia (Kp), Psedomonas aeruginosa (Pa), and Acinetobacter baumannii (Ab). All bacteria were cultured in cation-adjusted Mueller Hinton Broth (CAMHB) at 37 °C overnight. A sample of each culture was then diluted 40-fold in fresh broth and incubated at 37 °C for 1.5–3 h. The resultant mid-log phase cultures were diluted (CFU/mL measured by OD600), then added to each well of the complexes containing plates, giving a cell density of 5 × 10^5 CFU/mL and a total volume of 50 μL. All the plates were covered and incubated at 37 °C for 18 h without shaking. The inhibition of bacterial growth was determined by measuring the absorbance at 600 nm (OD600) using a Tecan M1000 Pro monochromator plate reader (Männedorf, Switzerland). The percentage of growth inhibition was calculated for each well, using the negative control (media only) and positive control (bacteria without inhibitors) on the same plate as references. […]

Series [3] concerns Acinetobacter baumannii (Ab). Description: Antibacterial MIC assay (CO-ADD). Format: cell-based. As to conditions: 18 h, 37 °C, inhibition ≥ 80%. The procedure: (§2) The antimicrobial assays were performed according to the protocols of the Community for Open Antimicrobial Drug Discovery (CO-ADD). […] All the sample preparation was done using liquid-handling robots.
as §1

A further series deals with Escherichia coli (Ec). Description: Antibacterial MIC assay (CO-ADD). Format: cell-based. As to conditions: 18 h, 37 °C, inhibition ≥ 80%. Here is the method: as §2, §1
Series [4] relates to Psedomonas aeruginosa (Pa). Description: Antibacterial MIC assay (CO-ADD). Format: cell-based. As to conditions: 18 h, 37 °C, inhibition ≥ 80%. The procedure: as §2, §1
Series [5] relates to Cryptococcus neoformans (Cn). Description: Antifungal MIC assay (CO-ADD). Format: cell-based. The following applies: 36 h, 35 °C, inhibition ≥ 70%. Here is the method: as §2
The antifungal activity of all synthesized complexes was evaluated in two different fungi, Candida albicans (Ca) and Cryptococcus neoformans (Cn). Fungi strains were cultured for 3 days on yeast extract–peptone–dextrose (YPD) agar at 30 °C. A yeast suspension of 1 × 10^6 to 5 × 10^6 CFU/mL (as determined by OD530) was prepared from five colonies. The suspension was subsequently diluted and added to each well of the complex-containing plates, giving a final cell density of fungus suspension of 2.5 × 10^3 CFU/mL and a total volume of 50 μL. All plates were covered and incubated at 35 °C for 36 h without shaking. […] The absorbance was measured using a Biotek Multiflo Synergy HTX plate reader (Winooski, VT, USA). In both cases, the percentage of growth inhibition was calculated for each well, using the negative control (media only) and positive control (fungi without inhibitors) on the same plate. […] Due to a higher variance in growth and inhibition, a lower threshold was applied to the data for C. neoformans.

A value given as a limit tells only on which side of the number the result lay.

The IC50 is the concentration needed to halve the response being measured. Low readings indicate greater potency in that assay, high ones weaker potency in that assay. With `Cc1ccc(-c2ccccn2)[c]([Au+][S]C(=S)N(C)C)c1.F[P-](F)(F)(F)(F)F` [Complex C1, [Au(tpy)(dmdtc)] PF6], the “Log Pow” value in series [1] was determined as 0.61. In addition, in the series on Caco-2/TC7 tumor cells, the IC50 stood at 5110 ± 120 nM and the “Tumor Cells Selectivity over Normal Cells” value (from here on “Tumor Cells Selectivity”) was 4.5-fold. Also, in series [2], the “MIC Sa” value was no more than 0.25 µg/mL. Also, the “MIC Ab” value in series [3] was greater than 32 µg/mL. The “MIC Ec” value against Escherichia coli (Ec) is recorded as 32 µg/mL. Besides, the “MIC Pa” value in series [4] was greater than 32 µg/mL. Also, the “MIC Cn” value in series [5] is on record as 32 µg/mL.
Regarding `CN(C)C(=S)[S][Au+][c]1ccccc1-c1ccccn1.F[P-](F)(F)(F)(F)F` [Complex C2, [Au(ppy)(dmdtc)]PF6], the “Log Pow” value in series [1] amounted to 1.11. In the series with Caco-2/TC7 tumor cells, the midpoint of inhibition, the IC50, lay at 1790 ± 120 nM and the “Tumor Cells Selectivity” value is 8.8-fold. In addition, the “MIC Sa” value in series [2] is no more than 0.25 µg/mL. Moreover, in series [3], the “MIC Ab” value was 32 µg/mL. In addition, the “MIC Ec” value against Escherichia coli (Ec) came to 32 µg/mL. Moreover, the “MIC Pa” value in series [4] is given as greater than 32 µg/mL. In series [5], the “MIC Cn” value is given as 32 µg/mL.
With `CCN(CC)C(=S)[S][Au+][c]1cc(C)ccc1-c1ccccn1.F[P-](F)(F)(F)(F)F` [Complex C3, [Au(tpy)(dedtc)]PF6], the “Log Pow” value in series [1] is 1.17. In addition, in the series with Caco-2/TC7 tumor cells, the IC50 was determined as 1850 ± 360 nM and the “Tumor Cells Selectivity” value is recorded as 7.0-fold. Besides, the “MIC Sa” value in series [2] was no more than 0.25 µg/mL. For the same molecule, in series [3], the “MIC Ab” value is recorded as greater than 32 µg/mL. The “MIC Ec” value against Escherichia coli (Ec) worked out at 32 µg/mL. For the same molecule, the “MIC Pa” value in series [4] was greater than 32 µg/mL. The “MIC Cn” value in series [5] was 2 µg/mL.
`Cc1ccc2[c](c1)[Au-]1([S]C(N(Cc3ccccc3)Cc3ccccc3)=[S+]1)[n+]1ccccc1-2.F[P-](F)(F)(F)(F)F` (stereo not shown) [Complex C5, [Au(tpy)(dbdtc)]PF6]: the “Log Pow” value in series [1] is reported as 0.89. The same molecule gave an IC50 with Caco-2/TC7 tumor cells of 2070 ± 110 nM. Moreover, in series [2], the “MIC Sa” value is 32 µg/mL. For the same molecule, the “MIC Ab” value in series [3] is given as greater than 32 µg/mL. In the series on Escherichia coli (Ec), the “MIC Ec” value is greater than 32 µg/mL. The “MIC Pa” value in series [4] was greater than 32 µg/mL. In addition, in series [5], the “MIC Cn” value amounted to 32 µg/mL.
In the case of `F[P-](F)(F)(F)(F)F.S=C([S][Au+][c]1ccccc1-c1ccccn1)N(Cc1ccccc1)Cc1ccccc1` [Complex C6, [Au(ppy)(dbdtc)]PF6], in series [1], the “Log Pow” value came to 1.00. In the series on Caco-2/TC7 tumor cells, the concentration for half-maximal inhibition (IC50) is 4020 ± 300 nM and the “Tumor Cells Selectivity” value was 6.2-fold. In addition, the “MIC Sa” value in series [2] is 4 µg/mL. Also, the “MIC Ab” value in series [3] is on record as 32 µg/mL. Also, the “MIC Ec” value against Escherichia coli (Ec) is given as greater than 32 µg/mL. Further, the “MIC Pa” value in series [4] is listed as greater than 32 µg/mL.
For [Au(ppy)(dedtc)]PF6 [Complex C4], the “Log Pow” value in series [1] was determined as 1.57. In the series with Caco-2/TC7 tumor cells, the IC50 came to 2470 ± 250 nM and the “Tumor Cells Selectivity” value is on record as 6.8-fold. Moreover, the “MIC Sa” value in series [2] is given as no more than 0.25 µg/mL. In series [3], the “MIC Ab” value was greater than 32 µg/mL. Moreover, in the series with Escherichia coli (Ec), the “MIC Ec” value amounted to 32 µg/mL. Besides, in series [4], the “MIC Pa” value is reported as greater than 32 µg/mL. In series [5], the “MIC Cn” value is 32 µg/mL.

Values taken from PMC8698672, “Selective Anticancer and Antimicrobial Metallodrugs Based on Gold(III) Dithiocarbamate Complexes” (Biomedicines, 2021).
